31 molecules from BindingDB's records for doi:10.7270/Q280511V (University of Pittsburgh, 2008) can be followed below.

The target of this assay is Serine/threonine-protein kinase PLK1 (Homo sapiens, UniProt P53350). Kind of assay: PLK1 polo-box domain peptide-binding inhibitors, SAR follow-up, biochemical, fluorescence polarization, synthesized analogs, concentration response (AID 1057).

Broadly, the IC50 is the concentration that inhibits the measured activity by half.

Chain of Serine/threonine-protein kinase PLK1 (P53350 whole entry, the tested form may be a part): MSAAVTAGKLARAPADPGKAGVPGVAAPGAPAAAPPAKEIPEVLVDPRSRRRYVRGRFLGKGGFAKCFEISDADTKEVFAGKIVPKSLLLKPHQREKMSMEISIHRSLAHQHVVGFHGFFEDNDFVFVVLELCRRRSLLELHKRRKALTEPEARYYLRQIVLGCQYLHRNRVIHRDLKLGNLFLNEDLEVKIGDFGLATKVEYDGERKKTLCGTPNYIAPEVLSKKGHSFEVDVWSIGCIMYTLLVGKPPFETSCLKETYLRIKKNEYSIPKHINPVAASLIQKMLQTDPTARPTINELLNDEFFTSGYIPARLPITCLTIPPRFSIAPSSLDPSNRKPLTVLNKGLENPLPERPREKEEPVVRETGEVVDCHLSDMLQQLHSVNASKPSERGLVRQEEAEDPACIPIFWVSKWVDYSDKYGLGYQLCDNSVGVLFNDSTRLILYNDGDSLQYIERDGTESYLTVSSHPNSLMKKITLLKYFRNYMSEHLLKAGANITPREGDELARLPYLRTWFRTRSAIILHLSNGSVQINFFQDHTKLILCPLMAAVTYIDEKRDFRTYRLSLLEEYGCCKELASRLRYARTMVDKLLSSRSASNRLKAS

In turn, `CCOC(=O)c1cccc(NC(=O)c2ccc(F)cc2F)c1` [3-[(2,4-difluorobenzoyl)amino]benzoic acid ethyl ester] gave an IC50 of more than 50 µM.

The molecule `CCOC(=O)c1cccc(NC(=O)c2c(N)n(C)c(=O)[nH]c2=O)c1` [UPDDI-00398617] returned an IC50 of more than 50 µM.

On to `CCCCOC(=O)c1ccc(NC(=O)c2c(O)[nH]c(=O)[nH]c2=O)cc1` [4-[[(6-hydroxy-2,4-dioxo-1H-pyrimidin-5-yl)-oxomethyl]amino]benzoic acid butyl ester], for which the IC50 was more than 50 µM.

`CCOc1ccc(NC(=O)c2c(N)n(C)c(=O)[nH]c2=O)cc1` displayed an IC50 of more than 50 µM.

Regarding `CCOC(=O)c1cccc(NC(=O)c2c(NCc3ccccc3)[nH]c(=O)[nH]c2=O)c1` [ethyl 3-[[2,4-bis(oxidanylidene)-6-[(phenylmethyl)amino]-1H-pyrimidin-5-yl]carbonylamino]benzoate], the IC50 was more than 50 µM.

For the molecule `CCOC(=O)CCCCCNC(=O)C1C(=O)NC(=O)NC1=O` [6-[[hydroxy-(2,4,6-triketohexahydropyrimidin-5-ylidene)methyl]amino]hexanoic acid ethyl ester], the 50% inhibitory concentration (IC50) was more than 50 µM.

The molecule `CCOC(=O)c1ccccc1NC(=O)c1c(O)[nH]c(=O)[nH]c1=O` came in with an IC50 of more than 50 µM.

`O=C(Nc1ccccc1)c1c(O)[nH]c(=O)[nH]c1=O` had a 50% inhibitory concentration (IC50) of more than 50 µM.

Regarding `CCCCOC(=O)c1ccc(NC(=O)c2ccc(F)cc2F)cc1` [4-[(2,4-difluorobenzoyl)amino]benzoic acid butyl ester], the IC50 was more than 50 µM.

On to `CCOC(=O)c1ccc(NC(=O)c2c(N)n(C)c(=O)[nH]c2=O)cc1` [UPDDI-00294856], for which the IC50 is more than 50 µM.

Molecule `Cc1cccc(NNC=C2C(=O)NC(=S)NC2=O)c1` [5-[[2-(3-methylphenyl)hydrazinyl]methylidene]-2-sulfanylidene-1,3-diazinane-4,6-dione] yielded an IC50 of more than 50 µM.

Consider `CCOc1ccc(NC(=O)c2ccc(F)cc2F)cc1` [2,4-difluoro-N-p-phenetyl-benzamide], for which the half-maximal inhibitory concentration (IC50) was more than 50 µM.

In the case of `CCOC(=O)c1ccc(NC(=O)c2c(NCc3ccccc3)[nH]c(=O)[nH]c2=O)cc1` [UPDDI-00398618], the IC50 was more than 50 µM.

Take `CCOC(=O)c1ccc(NC(=O)c2ccc(F)cc2F)cc1` [4-[(2,4-difluorobenzoyl)amino]benzoic acid ethyl ester]: the IC50 was more than 50 µM.

Molecule `CC(NNC(=O)c1ccncc1)=C1C(=O)NC(=O)NC1=O` showed an IC50 of more than 50 µM.

`CCOC(=O)c1ccc(NS(=O)(=O)c2c(N)n(C)c(=O)n(C)c2=O)cc1` [4-[(4-amino-1,3-dimethyl-2,6-dioxo-5-pyrimidinyl)sulfonylamino]benzoic acid ethyl ester]: the IC50 was more than 50 µM.

`CCOC(=O)CCCCCNC(=O)c1ccc(F)cc1F` [6-[(2,4-difluorobenzoyl)amino]hexanoic acid ethyl ester] had a half-maximal inhibitory concentration (IC50) of more than 50 µM.

Consider `Cn1c(N)c(S(=O)(=O)NCc2ccccc2)c(=O)n(C)c1=O` [4-amino-1,3-dimethyl-2,6-dioxo-N-(phenylmethyl)-5-pyrimidinesulfonamide], for which the IC50 was more than 50 µM.

Take `CCOC(=O)c1ccc(NC(=O)c2c(N)n(C)c(=O)n(C)c2=O)cc1` [4-[(4-amino-2,6-diketo-1,3-dimethyl-pyrimidine-5-carbonyl)amino]benzoic acid ethyl ester]: the half-inhibitory concentration (IC50) is more than 50 µM.

In turn, `O=C(Nc1ccccc1)c1ccc(F)cc1F` [2,4-bis(fluoranyl)-N-phenyl-benzamide] came in with an IC50 of more than 50 µM.

`Cc1ccc(NC(=O)c2ccc(F)cc2F)cc1` [2,4-bis(fluoranyl)-N-(4-methylphenyl)benzamide] yielded an IC50 of more than 50 µM.

For the molecule `CCOC(=O)c1ccccc1NC(=O)c1c(O)[nH]c(=S)[nH]c1=O`, the 50% inhibitory concentration (IC50) is more than 50 µM.

The molecule `CCOc1ccc(NC(=O)c2c(O)[nH]c(=O)[nH]c2=O)cc1` [N-(4-ethoxyphenyl)-6-hydroxy-2,4-dioxo-1H-pyrimidine-5-carboxamide] yielded an IC50 of more than 50 µM.

As to `CCOC(=O)c1ccccc1NC(=O)c1c(N)n(C)c(=O)[nH]c1=O` [ethyl 2-[[6-azanyl-1-methyl-2,4-bis(oxidanylidene)pyrimidin-5-yl]carbonylamino]benzoate], the IC50 is more than 50 µM.

Molecule `CCOC(=O)c1ccc(NC(=O)c2c(N)n(Cc3ccccc3)c(=O)[nH]c2=O)cc1` [ethyl 4-[(6-amino-1-benzyl-2,4-dioxopyrimidine-5-carbonyl)amino]benzoate] came in with an IC50 of more than 50 µM.

`CCOC(=O)c1cccc(NC(=O)c2c(O)[nH]c(=O)[nH]c2=O)c1` [3-[[(6-hydroxy-2,4-dioxo-1H-pyrimidin-5-yl)-oxomethyl]amino]benzoic acid ethyl ester] yielded a half-inhibitory concentration (IC50) of more than 50 µM.

For the molecule `O=C(Nc1ccccc1)c1c(O)[nH]c(=S)[nH]c1=O`, the IC50 is more than 50 µM.

In the case of `CCOC(=O)c1ccc(NC(=O)c2c(O)[nH]c(=O)[nH]c2=O)cc1`, the IC50 was more than 50 µM.

Regarding `CCCCOC(=O)c1ccc(NC(=O)c2c(N)n(C)c(=O)[nH]c2=O)cc1` [4-[[(6-amino-1-methyl-2,4-dioxo-5-pyrimidinyl)-oxomethyl]amino]benzoic acid butyl ester], the IC50 is more than 50 µM.

In turn, `Cn1c(N)c(C(=O)Nc2ccccc2)c(=O)[nH]c1=O` [UPDDI-00398616] registered a 50% inhibitory concentration (IC50) of more than 50 µM.

As to `CCOC(=O)c1ccccc1NC(=O)c1ccc(F)cc1F` [2-[(2,4-difluorobenzoyl)amino]benzoic acid ethyl ester], the IC50 was more than 50 µM.
